The nature of data set [1]: refractive index (Na D-line) (dimensionless). The conditions noted are these: 298.15 K; 101.33 kPa; Liquid; Standard Abbe refractometry.
The conditions of data set [2]: 298.15 K; 101.33 kPa; Liquid; Vibrating tube method.
Data set [3] in a line: excess molar enthalpy (molar enthalpy of mixing); xn = mol fraction of the nth substance listed. To be noted: 298 K, 81.5 kPa, Liquid, Isoperibol calorimetry.

Numbers after ± are expanded uncertainties.

In general, refractive index refers to the speed of light in vacuum divided by its phase velocity in the sample. Broadly, the mass density is the mass of a sample divided by its volume. As to `CCCO` [propan-1-ol], the refractive index in data set [1] was 1.38361 ± 0.00031. For the same compound, the mass density in data set [2] is on record as 799.56 ± 1 kg/m3.

Regarding `CCCCO` [butan-1-ol], the refractive index in data set [1] worked out at 1.39734 ± 0.00031. In addition, in data set [2], the mass density is given as 805.79 ± 1 kg/m3.

As to `O=[N+]([O-])c1ccccc1` [nitrobenzene] + CCCO, the excess molar enthalpy amounted to 0.169 ± 0.00222 kcal/mol in data set [3] (x1 = 0.1037); 0.288 ± 0.00359 kcal/mol in data set [3] (x1 = 0.2036); 0.364 ± 0.00454 kcal/mol in data set [3] (x1 = 0.3063); 0.409 ± 0.00502 kcal/mol in data set [3] (x1 = 0.4034); 0.432 ± 0.0055 kcal/mol in data set [3] (x1 = 0.4956); 0.432 ± 0.0055 kcal/mol in data set [3] (x1 = 0.4993). Further, the excess molar enthalpy in data set [3] (x1 = 0.593) worked out at 0.43 ± 0.00526 kcal/mol; in data set [3] (x1 = 0.6975), 0.408 ± 0.00502 kcal/mol; in data set [3] (x1 = 0.7978), 0.351 ± 0.0043 kcal/mol; in data set [3] (x1 = 0.9025), 0.242 ± 0.00311 kcal/mol.

Consider `CC(C)O` [propan-2-ol], for which the refractive index in data set [1] is 1.37518 ± 0.00033. Also, in data set [2], the mass density amounted to 780.9 ± 1 kg/m3.

For the compound `CCO` [ethanol], the refractive index in data set [1] is 1.35961 ± 0.00031. Also, in data set [2], the mass density came out at 784.9 ± 1 kg/m3.

Regarding `O=[N+]([O-])c1ccccc1` [nitrobenzene], in data set [1], the refractive index stood at 1.55004 ± 0.00037. Moreover, in data set [2], the mass density came to 1198.12 ± 1.1 kg/m3.

For the compound `O=[N+]([O-])c1ccccc1` [nitrobenzene] + CCO, the excess molar enthalpy in data set [3] (x1 = 0.0997) was found to be 0.112 ± 0.00153 kcal/mol; in data set [3] (x1 = 0.1991), 0.201 ± 0.00263 kcal/mol; in data set [3] (x1 = 0.2988), 0.264 ± 0.00335 kcal/mol; in data set [3] (x1 = 0.4003), 0.307 ± 0.00382 kcal/mol; in data set [3] (x1 = 0.4899), 0.342 ± 0.0043 kcal/mol; in data set [3] (x1 = 0.5905) it was 0.355 ± 0.00454 kcal/mol. Also, the excess molar enthalpy in data set [3] (x1 = 0.6997) came out at 0.344 ± 0.0043 kcal/mol; in data set [3] (x1 = 0.7999), 0.304 ± 0.00382 kcal/mol; in data set [3] (x1 = 0.8939) it was 0.222 ± 0.00287 kcal/mol.

With `O=[N+]([O-])c1ccccc1` [nitrobenzene] + CCCCO, the excess molar enthalpy was 0.184 ± 0.00239 kcal/mol in data set [3] (x1 = 0.1116); 0.31 ± 0.00382 kcal/mol in data set [3] (x1 = 0.2145); 0.398 ± 0.00502 kcal/mol in data set [3] (x1 = 0.3183); 0.448 ± 0.0055 kcal/mol in data set [3] (x1 = 0.4126); 0.464 ± 0.00574 kcal/mol in data set [3] (x1 = 0.5133); 0.466 ± 0.00574 kcal/mol in data set [3] (x1 = 0.61). Besides, the excess molar enthalpy in data set [3] (x1 = 0.6849) turned out to be 0.449 ± 0.0055 kcal/mol; in data set [3] (x1 = 0.7953) it was 0.391 ± 0.00502 kcal/mol; in data set [3] (x1 = 0.8987) it was 0.262 ± 0.00335 kcal/mol.

In the case of `O=[N+]([O-])c1ccccc1` [nitrobenzene] + CCC(C)O, the excess molar enthalpy in data set [3] (x1 = 0.1035) is 0.262 ± 0.00335 kcal/mol; in data set [3] (x1 = 0.2049), 0.424 ± 0.00526 kcal/mol; in data set [3] (x1 = 0.3065), 0.528 ± 0.00669 kcal/mol; in data set [3] (x1 = 0.4088), 0.579 ± 0.00717 kcal/mol; in data set [3] (x1 = 0.5111), 0.592 ± 0.00741 kcal/mol; in data set [3] (x1 = 0.6117) it was 0.568 ± 0.00693 kcal/mol. Besides, the results for the excess molar enthalpy in data set [3] (x1 = 0.6988), in data set [3] (x1 = 0.7988) and in data set [3] (x1 = 0.8981) were 0.534 ± 0.00669 kcal/mol, 0.448 ± 0.0055 kcal/mol and 0.292 ± 0.00382 kcal/mol, respectively.

`CCC(C)O` (stereo not drawn) [butan-2-ol]: in data set [1], the refractive index is on record as 1.39551 ± 0.00037. Further, in data set [2], the mass density is 802.48 ± 1 kg/m3.

Take `O=[N+]([O-])c1ccccc1` [nitrobenzene] + CC(C)O: the excess molar enthalpy in data set [3] (x1 = 0.1038) is 0.208 ± 0.00263 kcal/mol; in data set [3] (x1 = 0.2065), 0.339 ± 0.0043 kcal/mol; in data set [3] (x1 = 0.306), 0.42 ± 0.00526 kcal/mol; in data set [3] (x1 = 0.3954), 0.466 ± 0.00574 kcal/mol; in data set [3] (x1 = 0.4911), 0.488 ± 0.00598 kcal/mol; in data set [3] (x1 = 0.5906), 0.485 ± 0.00598 kcal/mol. The figures for the excess molar enthalpy in data set [3] (x1 = 0.6999), in data set [3] (x1 = 0.8042) and in data set [3] (x1 = 0.8996) were 0.451 ± 0.00574 kcal/mol, 0.381 ± 0.00478 kcal/mol and 0.264 ± 0.00335 kcal/mol, respectively.

These data come from the NIST ThermoML archive (doi:10.1016/j.jct.2014.09.001).
